{"source": "paper PMC4039107", "about": "“Spores of Clostridium engineered for clinical efficacy and safety cause regression and cure of tumors in vivo” (Oncotarget, 2014)", "type_in_all_cases": "biochemical", "key": {"NmeNTR": {"target": "T1, NmeNTR (Neisseria meningitidis, UniProt Q9K022)", "T1 construct": "gene NMB0804", "T1 sequence (Q9K022 entry or part of it)": "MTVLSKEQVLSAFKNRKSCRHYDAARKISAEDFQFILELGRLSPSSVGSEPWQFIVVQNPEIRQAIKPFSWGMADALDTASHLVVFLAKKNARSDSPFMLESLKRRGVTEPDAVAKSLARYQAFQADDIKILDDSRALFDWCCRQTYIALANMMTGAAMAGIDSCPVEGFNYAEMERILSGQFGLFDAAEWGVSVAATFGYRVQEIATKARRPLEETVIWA", "test": "HPLC CB1954 nitroreductase assay", "description": "HPLC CB1954 nitroreductase assay on NmeNTR"}, "HsoNTR": {"target": "T2, HsoNTR (Histophilus somni, UniProt A0A9Q6YZG6)", "T2 construct": "gene JFL49_05940", "T2 sequence (A0A9Q6YZG6 entry or part of it)": "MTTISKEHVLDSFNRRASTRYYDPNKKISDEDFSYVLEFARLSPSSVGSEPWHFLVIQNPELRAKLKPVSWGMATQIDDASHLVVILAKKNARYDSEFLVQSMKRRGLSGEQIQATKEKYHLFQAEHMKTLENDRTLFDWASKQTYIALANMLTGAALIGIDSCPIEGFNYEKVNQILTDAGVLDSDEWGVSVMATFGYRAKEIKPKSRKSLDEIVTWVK", "test": "HPLC CB1954 nitroreductase assay", "description": "HPLC CB1954 nitroreductase assay on HsoNTR"}, "NfnB": {"target": "T3, NfnB (Escherichia coli, UniProt P38489)", "T3 construct": "gene nfsB; untagged as far as told; expressed from fdx promoter at pyrE locus of C. sporogenes strain E1; cell lysate", "T3 sequence (P38489 1-217)": "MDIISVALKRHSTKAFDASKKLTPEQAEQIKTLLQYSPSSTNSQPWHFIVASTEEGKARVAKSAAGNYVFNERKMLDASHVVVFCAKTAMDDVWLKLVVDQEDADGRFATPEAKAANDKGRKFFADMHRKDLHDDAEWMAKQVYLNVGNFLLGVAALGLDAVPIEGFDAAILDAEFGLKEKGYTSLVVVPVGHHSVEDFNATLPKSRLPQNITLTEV", "test": "menadione reductase activity of C. sporogenes E1 lysate", "conditions": "background of endogenous quinone reductases in wild type and pyrE mutant controls"}, "[1]": {"conditions": "kcat is with NADH as co-substrate, read-out: Km ^CB1954"}, "[2]": {"conditions": "co-substrate CB1954, read-out: Km ^NADH"}}, "note": "Read-outs that look alike come from different tables or passages of the source."}
{"smiles": "NC(=O)c1cc(N2CC2)c([N+](=O)[O-])cc1[N+](=O)[O-]", "note": "[CB1954, 5-(aziridin-1-yl)-2,4-dinitrobenzamide]", "values": [{"measurement": "Km", "setting": "NmeNTR; [1]", "value": 2.47, "unit": "µM"}, {"measurement": "Km", "setting": "HsoNTR; [1]", "value": 22, "unit": "µM"}]}
{"smiles": "NC(=O)C1=CN([C@@H]2O[C@H](COP(=O)(O)OP(=O)(O)OC[C@H]3O[C@@H](n4cnc5c(N)ncnc54)[C@H](O)[C@@H]3O)[C@@H](O)[C@H]2O)C=CC1", "note": "[NADH]", "values": [{"measurement": "Km", "setting": "NmeNTR; [2]", "value": 188, "unit": "µM"}, {"measurement": "Km", "setting": "HsoNTR; [2]", "value": 644, "unit": "µM"}]}
{"smiles": "CC1=CC(=O)c2ccccc2C1=O", "note": "[menadione]", "values": [{"measurement": "specific menadione reductase activity", "setting": "NfnB", "value": "both E1 and N1 contained menadione reductase activity elevated significantly above the endogenous levels"}]}
